Drawing on PubChem BioAssay (NCI), this text covers TGI and GI50 for 17 molecules.

Some test systems named below: ACHN renal; M14 melanoma; A549 NSCLC; OVCAR-8 ovarian; SNB-19 CNS; MALME-3M melanoma; OVCAR-4 ovarian; A498 renal; EKVX NSCLC; RXF 393 renal.
Holding throughout (test): NCI-60 cell line screen, 48 h

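Tested at 5 concentrations; 48 h exposure; 96-well plates; endpoints linearly interpolated, else capped at highest concentration. GI50 = concentration required for 50% inhibition of growth. TGI denotes the concentration required for complete inhibition of growth.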 A value given as a limit tells only on which side of the number the result lay.

For `CSc1nc(Cl)c(Br)c(Sc2nc(N)nc3nc[nH]c23)n1`, the TGI in the experiment with ACHN renal was found to be 30.3 µM; with M14 melanoma it was 15.3 µM; with A549 NSCLC, 48.7 µM; in the experiment with OVCAR-8 ovarian, 41.9 µM; with SNB-19 CNS, 30.2 µM; in the experiment with MALME-3M melanoma, 26.4 µM. This molecule also returned a TGI in the experiment on OVCAR-4 ovarian of 23.3 µM.
`N=C(c1ccc2ccccc2c1)c1ccccc1Cc1ccccc1`: the TGI in the experiment on A498 renal, in the experiment with ACHN renal, with EKVX NSCLC, with M14 melanoma, with A549 NSCLC and with OVCAR-8 ovarian was greater than 100 µM in each case. The TGI in the experiment with SNB-19 CNS is greater than 100 µM; in the experiment with OVCAR-4 ovarian, greater than 100 µM; in the experiment with RXF 393 renal, 34.4 µM.
Regarding `O=C1c2ccccc2C(=O)c2c(Nc3ccc4c5c(cccc35)C(=O)c3ccccc3-4)cccc21`, the TGI with A498 renal, in the experiment on ACHN renal, in the experiment with EKVX NSCLC, with M14 melanoma, in the experiment with A549 NSCLC and in the experiment on SNB-19 CNS was greater than 100 µM throughout. Further, the TGI in the experiment with MALME-3M melanoma, with OVCAR-4 ovarian and with RXF 393 renal was greater than 100 µM each time.
As to `CCOC(=O)C12CCC(=O)C=C1[C@@H](C)C(=O)CC2` (stereo not given in full), the TGI in the experiment with ACHN renal, with EKVX NSCLC, in the experiment with M14 melanoma, with OVCAR-8 ovarian, with MALME-3M melanoma and in the experiment with RXF 393 renal was greater than 100 µM throughout.
On to `O=C(CNc1cccc([N+](=O)[O-])c1)Nn1c(-c2ccccc2)nc2ccccc2c1=O`, for which the TGI in the experiment with A498 renal came to 0.274 µM; in the experiment on ACHN renal, 3.34 µM; with EKVX NSCLC it was 6.86 µM; in the experiment on A549 NSCLC, 4.9 µM; with OVCAR-8 ovarian, 5.31 µM; with SNB-19 CNS, 4.99 µM. Besides, the TGI is 2.41 µM in the experiment on MALME-3M melanoma and 1.08 µM in the experiment on RXF 393 renal.
For `CC(C)(C)N1C(C(=O)c2ccccc2)C1c1ccccc1` (stereo not given), the TGI in the experiment with EKVX NSCLC, in the experiment with M14 melanoma, in the experiment with A549 NSCLC, with OVCAR-8 ovarian, in the experiment on SNB-19 CNS and in the experiment on OVCAR-4 ovarian was greater than 100 µM each time. The same molecule gave a TGI in the experiment on RXF 393 renal greater than 100 µM.
On to `N#CN=C(N)NC(=O)/C=C/C=C/c1ccc(Cl)cc1`, for which the TGI in the experiment on A498 renal, in the experiment on ACHN renal, with M14 melanoma, in the experiment with A549 NSCLC, with OVCAR-8 ovarian and in the experiment with MALME-3M melanoma was greater than 100 µM in each case. Besides, the TGI in the experiment with OVCAR-4 ovarian and in the experiment with RXF 393 renal was greater than 100 µM throughout.
Turning to `CC(C)(C)OC(=O)c1cnc(Cl)cn1`, the TGI in the experiment with ACHN renal is 99.6 µM; with EKVX NSCLC, 64.3 µM; in the experiment on M14 melanoma, greater than 100 µM; in the experiment with A549 NSCLC, greater than 100 µM; in the experiment with OVCAR-8 ovarian it was greater than 100 µM; with SNB-19 CNS, greater than 100 µM. Further, the TGI was greater than 100 µM in the experiment on MALME-3M melanoma and 91.9 µM in the experiment on OVCAR-4 ovarian.
Take `CC(C)c1cc(CN(C)C)c(O)c(C(C)(C)C)c1`: the TGI is 41.3 µM with A498 renal; 32.3 µM with ACHN renal; 64.4 µM in the experiment on EKVX NSCLC; 78.5 µM in the experiment with M14 melanoma; 53.1 µM in the experiment on A549 NSCLC; 99.6 µM in the experiment with OVCAR-8 ovarian. Also, the TGI in the experiment on SNB-19 CNS turned out to be 53.4 µM; with MALME-3M melanoma it was 76.2 µM; in the experiment on OVCAR-4 ovarian, 99.1 µM; with RXF 393 renal, 37.2 µM.
Regarding `O=c1ccc2nc(-c3ccccc3)nn(-c3ccccn3)c-2c1`, the GI50 with A498 renal is 16.6 µM; in the experiment with ACHN renal, 1.7 µM; in the experiment with EKVX NSCLC, 14.8 µM; in the experiment on M14 melanoma it was 16.7 µM; in the experiment with A549 NSCLC it was 38.4 µM; with OVCAR-8 ovarian, 8.87 µM. Further, the GI50 in the experiment on MALME-3M melanoma was 1.92 µM; in the experiment on OVCAR-4 ovarian, 1.67 µM; with RXF 393 renal it was 1.79 µM. Moreover, the TGI with A498 renal was 37.3 µM; in the experiment on ACHN renal, 3.17 µM; with EKVX NSCLC it was 28.2 µM; in the experiment on M14 melanoma, 44.6 µM; in the experiment with A549 NSCLC, greater than 100 µM; with OVCAR-8 ovarian it was greater than 100 µM. For the same molecule, the TGI was 3.56 µM in the experiment with MALME-3M melanoma, 3.19 µM with OVCAR-4 ovarian and 3.3 µM in the experiment on RXF 393 renal.
Turning to `Nc1nc(N)c2c(n1)NC(=O)c1c(c3ccccc3n1Cc1ccc(Cl)cc1)C2`, the TGI with A498 renal was 30.8 µM; in the experiment on EKVX NSCLC it was greater than 100 µM; in the experiment on M14 melanoma, greater than 100 µM; with A549 NSCLC it was 62.6 µM; in the experiment on OVCAR-8 ovarian it was 96.6 µM; with SNB-19 CNS it was greater than 100 µM. For the same molecule, the TGI was greater than 100 µM in the experiment on MALME-3M melanoma, 49.9 µM in the experiment on OVCAR-4 ovarian and 33.4 µM in the experiment with RXF 393 renal.
On to `Nc1c2c(=O)[nH]c(=O)c2c(N)c2c(=O)c3ccccc3c(=O)c12`, for which the TGI is 2.85 µM with A498 renal; 9.79 µM with ACHN renal; 9.55 µM in the experiment with EKVX NSCLC; 0.88 µM with M14 melanoma; greater than 23.1 µM with A549 NSCLC; 5.82 µM in the experiment with OVCAR-8 ovarian. For the same molecule, the TGI in the experiment with SNB-19 CNS was greater than 57.4 µM; with MALME-3M melanoma, 0.581 µM; with OVCAR-4 ovarian, 3.39 µM; in the experiment on RXF 393 renal, 35.6 µM.
Regarding `CC(=O)OC(C)C1C2=C(C(=O)CC1(C)O)C(=O)c1c(ccc(-c3ccc4c(c3O)C(=O)C3=C(C4=O)C(C(C)OC(C)=O)C(C)(O)CC3=O)c1O)C2=O` (stereo not given), the TGI in the experiment with A498 renal amounted to 8.51 µM; in the experiment with ACHN renal, 3.22 µM; in the experiment with EKVX NSCLC, 26.1 µM; with M14 melanoma, 4.3 µM; in the experiment on A549 NSCLC, 18.8 µM; in the experiment with OVCAR-8 ovarian it was 7.42 µM. In addition, the TGI in the experiment on SNB-19 CNS is 24 µM; in the experiment with MALME-3M melanoma, 2.12 µM; in the experiment on OVCAR-4 ovarian it was 5.26 µM; in the experiment with RXF 393 renal, 3.59 µM.
For `C=CC[N+]12CN3CN(CN(C3)C1)C2`, the TGI is 94.1 µM in the experiment on A498 renal; 46 µM in the experiment with ACHN renal; 46.4 µM in the experiment with EKVX NSCLC; 82.3 µM with M14 melanoma; greater than 100 µM in the experiment on A549 NSCLC; 57.6 µM with OVCAR-8 ovarian. Also, the TGI was greater than 100 µM with SNB-19 CNS, 45.2 µM in the experiment with MALME-3M melanoma, 52.9 µM with OVCAR-4 ovarian and 38 µM with RXF 393 renal.
`COc1ccc(C[C@H](N)C(=O)NC2C(CO)OC(n3cnc4c(N(C)C)ncnc43)C2O)cc1` (stereo not given in full): the TGI was determined as 2.48 µM in the experiment with A498 renal; 1.06 µM with EKVX NSCLC; 1.77 µM in the experiment on M14 melanoma; 2.55 µM in the experiment with A549 NSCLC; 0.68 µM in the experiment on OVCAR-8 ovarian; 2.53 µM in the experiment on MALME-3M melanoma. For the same molecule, the TGI in the experiment with OVCAR-4 ovarian amounted to 2.1 µM; in the experiment on RXF 393 renal it was 0.73 µM.
In the case of `COC(=O)Nc1nc2cc(OC)c(OC)cc2c(=O)[nH]1`, the TGI in the experiment with A498 renal, in the experiment with ACHN renal, in the experiment with EKVX NSCLC, in the experiment on M14 melanoma, in the experiment with A549 NSCLC and in the experiment with OVCAR-8 ovarian was greater than 100 µM throughout. For the same molecule, the TGI with SNB-19 CNS, in the experiment with MALME-3M melanoma and in the experiment on OVCAR-4 ovarian was greater than 100 µM in each case.
`NC(=O)C(N)=O`: the TGI with A498 renal, in the experiment with ACHN renal, with EKVX NSCLC, with M14 melanoma, with A549 NSCLC and in the experiment with OVCAR-8 ovarian was greater than 100 µM in each case. Also, the TGI in the experiment on SNB-19 CNS, in the experiment with MALME-3M melanoma and with RXF 393 renal was greater than 100 µM throughout.
